Data taken from the supplement of paper PMC10307832.

Legend:
Assay in all cases: relative viability (nuclei count vs DMSO), 5 days (fraction); higher = more cells survive
Omipalisib + Dasatinib = compound: COc1ncc(-c2ccc3nccc(-c4ccnnc4)c3c2)cc1NS(=O)(=O)c1ccc(F)cc1F [Omipalisib] + Cc1nc(Nc2ncc(C(=O)Nc3c(C)cccc3Cl)s2)cc(N2CCN(CCO)CC2)n1 [Dasatinib] (partner 0.075 µM)
Method in brief: (§1)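 A single step with final 0.05% Triton X-100, 1% formaldehyde and 1 ug/ml Hoechst fixed the cells and stained nuclei 5 days after treatment. Lung cancer cell lines in 1536-well plates had been treated by pin tool the day after seeding with one drug alone or a fixed anchor-drug dose plus five library-drug doses (not always all listed) in √10 steps, and nuclei were counted on 4× images. Relative viability is the ratio of nuclei in treated wells to nuclei in vehicle wells, taken as the median of duplicate plates.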

Omipalisib + Foretinib = compound: COc1ncc(-c2ccc3nccc(-c4ccnnc4)c3c2)cc1NS(=O)(=O)c1ccc(F)cc1F [Omipalisib] + COc1cc2c(Oc3ccc(NC(=O)C4(C(=O)Nc5ccc(F)cc5)CC4)cc3F)ccnc2cc1OCCCN1CCOCC1 [Foretinib] (partner 0.25 µM)
Method in brief: as §1

Omipalisib + Phenformin = compound: COc1ncc(-c2ccc3nccc(-c4ccnnc4)c3c2)cc1NS(=O)(=O)c1ccc(F)cc1F [Omipalisib] + N=C(N)NC(=N)NCCc1ccccc1 [Phenformin] (partner 250 µM)
Method in brief: as §1

Omipalisib + Tozasertib = compound: COc1ncc(-c2ccc3nccc(-c4ccnnc4)c3c2)cc1NS(=O)(=O)c1ccc(F)cc1F [Omipalisib] + Cc1cc(Nc2cc(N3CCN(C)CC3)nc(Sc3ccc(NC(=O)C4CC4)cc3)n2)n[nH]1 [Tozasertib] (partner 0.1 µM)
Method in brief: as §1

Omipalisib + OSI-027 = compound: COc1ncc(-c2ccc3nccc(-c4ccnnc4)c3c2)cc1NS(=O)(=O)c1ccc(F)cc1F [Omipalisib] + COc1cccc2cc(-c3nc([C@H]4CC[C@H](C(=O)O)CC4)n4ncnc(N)c34)[nH]c12 [OSI-027] (partner 0.5 µM)
Method in brief: as §1

Omipalisib + Luminespib = compound: COc1ncc(-c2ccc3nccc(-c4ccnnc4)c3c2)cc1NS(=O)(=O)c1ccc(F)cc1F [Omipalisib] + CCNC(=O)c1noc(-c2cc(C(C)C)c(O)cc2O)c1-c1ccc(CN2CCOCC2)cc1 [Luminespib] (partner 0.01 µM)
Method in brief: as §1

Omipalisib = compound: COc1ncc(-c2ccc3nccc(-c4ccnnc4)c3c2)cc1NS(=O)(=O)c1ccc(F)cc1F [Omipalisib]
Method in brief: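 For viability, nuclei in each treated well were divided by nuclei in vehicle wells and the median across plates was taken. Lung cancer cell lines in 1536-well plates were pinned with five library-drug doses (not always all listed) spaced by √10, cultured 5 days without medium change, and imaged at 4× after Hoechst staining, with plates passing only at control CV below 25% and at least one doubling.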

Omipalisib + Olaparib = compound: COc1ncc(-c2ccc3nccc(-c4ccnnc4)c3c2)cc1NS(=O)(=O)c1ccc(F)cc1F [Omipalisib] + O=C(c1cc(Cc2n[nH]c(=O)c3ccccc23)ccc1F)N1CCN(C(=O)C2CC2)CC1 [Olaparib] (partner 8 µM)
Method in brief: as §1

Omipalisib + AZD7762 = compound: COc1ncc(-c2ccc3nccc(-c4ccnnc4)c3c2)cc1NS(=O)(=O)c1ccc(F)cc1F [Omipalisib] + NC(=O)Nc1cc(-c2cccc(F)c2)sc1C(=O)N[C@H]1CCCNC1 [AZD7762] (partner 0.2 µM)
Method in brief: as §1

Omipalisib + Vorinostat = compound: COc1ncc(-c2ccc3nccc(-c4ccnnc4)c3c2)cc1NS(=O)(=O)c1ccc(F)cc1F [Omipalisib] + O=C(CCCCCCC(=O)Nc1ccccc1)NO [Vorinostat] (partner 1 µM)
Method in brief: as §1

Omipalisib + Pemetrexed = compound: COc1ncc(-c2ccc3nccc(-c4ccnnc4)c3c2)cc1NS(=O)(=O)c1ccc(F)cc1F [Omipalisib] + Nc1nc2[nH]cc(CCc3ccc(C(=O)N[C@@H](CCC(=O)O)C(=O)O)cc3)c2c(=O)[nH]1 [Pemetrexed] (partner 0.2 µM)
Method in brief: as §1

Omipalisib + Decitabine = compound: COc1ncc(-c2ccc3nccc(-c4ccnnc4)c3c2)cc1NS(=O)(=O)c1ccc(F)cc1F [Omipalisib] + Nc1ncn([C@H]2C[C@H](O)[C@@H](CO)O2)c(=O)n1 [Decitabine] (partner 2 µM)
Method in brief: as §1

Omipalisib + Trametinib = compound: COc1ncc(-c2ccc3nccc(-c4ccnnc4)c3c2)cc1NS(=O)(=O)c1ccc(F)cc1F [Omipalisib] + CC(=O)Nc1cccc(-n2c(=O)n(C3CC3)c(=O)c3c(Nc4ccc(I)cc4F)n(C)c(=O)c(C)c32)c1 [Trametinib] (partner 0.02 µM)
Method in brief: as §1

Omipalisib + Palbociclib = compound: COc1ncc(-c2ccc3nccc(-c4ccnnc4)c3c2)cc1NS(=O)(=O)c1ccc(F)cc1F [Omipalisib] + CC(=O)c1c(C)c2cnc(Nc3ccc(N4CCNCC4)cn3)nc2n(C2CCCC2)c1=O [Palbociclib] (partner 0.5 µM)
Method in brief: as §1

## NCI-H1623
Omipalisib + Dasatinib; first compound 0.0003 µM
  relative viability: 0.488
Omipalisib + Dasatinib; first compound 0.003 µM
  relative viability: 0.466
Omipalisib + Dasatinib; first compound 0.03 µM
  relative viability: 0.266
Omipalisib + Foretinib; first compound 0.0003 µM
  relative viability: 0.76
Omipalisib + Foretinib; first compound 0.003 µM
  relative viability: 0.727
Omipalisib + Foretinib; first compound 0.03 µM
  relative viability: 0.316
Omipalisib + Phenformin; first compound 0.0003 µM
  relative viability: 0.479
Omipalisib + Phenformin; first compound 0.003 µM
  relative viability: 0.607
Omipalisib + Phenformin; first compound 0.03 µM
  relative viability: 0.247
Omipalisib + Tozasertib; first compound 0.0003 µM
  relative viability: 0.409
Omipalisib + Tozasertib; first compound 0.003 µM
  relative viability: 0.354
Omipalisib + Tozasertib; first compound 0.03 µM
  relative viability: 0.273
Omipalisib + OSI-027; first compound 0.0003 µM
  relative viability: 0.398
Omipalisib + OSI-027; first compound 0.003 µM
  relative viability: 0.338
Omipalisib + OSI-027; first compound 0.03 µM
  relative viability: 0.294
Omipalisib + Luminespib; first compound 0.0003 µM
  relative viability: 0.399
Omipalisib + Luminespib; first compound 0.003 µM
  relative viability: 0.287
Omipalisib + Luminespib; first compound 0.03 µM
  relative viability: 0.292
Omipalisib; 0.0003 µM
  relative viability: 0.855
Omipalisib; 0.003 µM
  relative viability: 0.553
Omipalisib; 0.03 µM
  relative viability: 0.359

## NCI-H1648
Omipalisib + Olaparib; first compound 0.0003 µM
  relative viability: 0.384
Omipalisib + Olaparib; first compound 0.003 µM
  relative viability: 0.392
Omipalisib + Olaparib; first compound 0.03 µM
  relative viability: 0.202
Omipalisib + AZD7762; first compound 0.0003 µM
  relative viability: 0.644
Omipalisib + AZD7762; first compound 0.003 µM
  relative viability: 0.843
Omipalisib + AZD7762; first compound 0.03 µM
  relative viability: 0.386
Omipalisib + Vorinostat; first compound 0.0003 µM
  relative viability: 0.548
Omipalisib + Vorinostat; first compound 0.003 µM
  relative viability: 0.396
Omipalisib + Vorinostat; first compound 0.03 µM
  relative viability: 0.228
Omipalisib + Tozasertib; first compound 0.0003 µM
  relative viability: 0.322
Omipalisib + Tozasertib; first compound 0.003 µM
  relative viability: 0.408
Omipalisib + Tozasertib; first compound 0.03 µM
  relative viability: 0.184
Omipalisib + Pemetrexed; first compound 0.0003 µM
  relative viability: 0.754
Omipalisib + Pemetrexed; first compound 0.003 µM
  relative viability: 0.619
Omipalisib + Pemetrexed; first compound 0.03 µM
  relative viability: 0.413
Omipalisib + OSI-027; first compound 0.0003 µM
  relative viability: 0.253
Omipalisib + OSI-027; first compound 0.003 µM
  relative viability: 0.291
Omipalisib + OSI-027; first compound 0.03 µM
  relative viability: 0.26
Omipalisib + Decitabine; first compound 0.0003 µM
  relative viability: 0.445
Omipalisib + Decitabine; first compound 0.003 µM
  relative viability: 0.363
Omipalisib + Decitabine; first compound 0.03 µM
  relative viability: 0.356
Omipalisib + Trametinib; first compound 0.0003 µM
  relative viability: 0.362
Omipalisib + Trametinib; first compound 0.003 µM
  relative viability: 0.407
Omipalisib + Trametinib; first compound 0.03 µM
  relative viability: 0.249
Omipalisib + Palbociclib; first compound 0.0003 µM
  relative viability: 0.277
Omipalisib + Palbociclib; first compound 0.003 µM
  relative viability: 0.23
Omipalisib + Palbociclib; first compound 0.03 µM
  relative viability: 0.29
Omipalisib; 0.0003 µM
  relative viability: 0.913
Omipalisib; 0.003 µM
  relative viability: 0.504
Omipalisib; 0.03 µM
  relative viability: 0.278
